Reference: PMC3275754, “Pregnenolone sulphate-independent inhibition of TRPM3 channels by progesterone” (Cell Calcium, 2012)

How the values were obtained:
Assay type in all cases: cell-based
[1] = molecular target: T1, Transient Receptor Potential Melastatin 3 (TRPM3) (Homo sapiens, UniProt Q9HCF6); experiment: Overlay binding assay with lysate of HEK […] cells expressing TRPM3-YFP; parameters: human TRPM3 tagged with YFP
[2] = molecular target: T1, Transient Receptor Potential Melastatin 3 (TRPM3); experiment: Ca2+ measurement and whole-cell patch-clamp inhibition; steroid overlay binding of TRPM3-YFP lysate; parameters: human TRPM3 expressed in HEK 293 cells; TRPM3-YFP for overlay
[3] = molecular target: T1, Transient Receptor Potential Melastatin 3 (TRPM3); experiment: Ca2+ measurement; […] inhibits PregS-evoked but not nifedipine-evoked TRPM3 activity; parameters: human TRPM3 expressed in HEK 293 cells

T1 sequence (Q9HCF6 whole entry): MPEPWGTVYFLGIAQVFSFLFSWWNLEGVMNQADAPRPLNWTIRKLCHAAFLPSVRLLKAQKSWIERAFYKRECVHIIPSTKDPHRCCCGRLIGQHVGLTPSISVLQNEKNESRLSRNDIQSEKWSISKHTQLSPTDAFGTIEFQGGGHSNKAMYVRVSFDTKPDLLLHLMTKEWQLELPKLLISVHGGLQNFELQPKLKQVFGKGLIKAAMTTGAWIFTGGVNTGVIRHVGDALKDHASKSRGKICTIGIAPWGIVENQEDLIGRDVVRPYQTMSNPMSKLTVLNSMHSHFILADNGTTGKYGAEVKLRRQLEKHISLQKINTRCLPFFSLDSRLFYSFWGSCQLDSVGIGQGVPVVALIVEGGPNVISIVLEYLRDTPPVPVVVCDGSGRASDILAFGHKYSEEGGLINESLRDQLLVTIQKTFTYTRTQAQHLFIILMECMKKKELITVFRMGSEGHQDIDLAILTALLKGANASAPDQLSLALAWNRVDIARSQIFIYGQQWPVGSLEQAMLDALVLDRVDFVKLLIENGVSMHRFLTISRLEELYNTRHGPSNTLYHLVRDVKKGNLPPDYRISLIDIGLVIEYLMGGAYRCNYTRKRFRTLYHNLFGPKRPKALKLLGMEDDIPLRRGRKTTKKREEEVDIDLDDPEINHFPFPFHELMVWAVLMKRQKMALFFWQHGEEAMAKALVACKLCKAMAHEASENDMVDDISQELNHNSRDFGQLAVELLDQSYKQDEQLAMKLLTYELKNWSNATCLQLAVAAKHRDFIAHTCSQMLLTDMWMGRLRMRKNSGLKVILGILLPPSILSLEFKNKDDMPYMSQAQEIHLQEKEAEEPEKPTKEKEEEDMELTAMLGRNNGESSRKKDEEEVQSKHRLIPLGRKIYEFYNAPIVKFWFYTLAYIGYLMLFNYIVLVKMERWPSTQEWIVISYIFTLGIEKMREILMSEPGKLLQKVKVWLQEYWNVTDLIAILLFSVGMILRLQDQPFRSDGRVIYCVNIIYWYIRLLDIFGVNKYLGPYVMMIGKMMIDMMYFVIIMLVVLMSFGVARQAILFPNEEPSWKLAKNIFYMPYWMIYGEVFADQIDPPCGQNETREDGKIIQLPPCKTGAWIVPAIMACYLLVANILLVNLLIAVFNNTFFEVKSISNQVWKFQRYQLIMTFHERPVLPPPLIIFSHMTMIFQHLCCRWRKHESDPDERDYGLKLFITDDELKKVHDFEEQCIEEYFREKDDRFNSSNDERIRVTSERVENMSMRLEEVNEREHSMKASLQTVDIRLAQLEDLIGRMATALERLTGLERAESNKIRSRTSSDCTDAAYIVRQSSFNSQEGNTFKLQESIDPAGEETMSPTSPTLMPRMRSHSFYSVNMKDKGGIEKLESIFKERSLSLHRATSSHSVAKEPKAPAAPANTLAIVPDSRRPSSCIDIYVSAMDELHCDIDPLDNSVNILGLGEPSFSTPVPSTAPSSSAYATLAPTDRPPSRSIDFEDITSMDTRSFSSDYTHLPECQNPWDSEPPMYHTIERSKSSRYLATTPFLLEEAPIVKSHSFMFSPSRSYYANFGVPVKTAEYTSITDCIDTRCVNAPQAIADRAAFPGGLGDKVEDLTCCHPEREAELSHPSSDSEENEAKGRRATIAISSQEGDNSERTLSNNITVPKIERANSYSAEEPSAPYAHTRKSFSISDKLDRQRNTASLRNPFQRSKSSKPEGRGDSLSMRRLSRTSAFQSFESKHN

CC(C)CCC[C@@H](C)[C@H]1CC[C@H]2[C@@H]3CC=C4C[C@@H](O)CC[C@]4(C)[C@H]3CC[C@]12C [cholesterol]
Overlay binding assay with lysate of HEK 293 cells expressing TRPM3-YFP [1]: TRPM3 bound to pregnenolone sulphate, progesterone, nifedipine, dihydrotestosterone and cholesterol

CC(=O)[C@H]1CC[C@H]2[C@@H]3CCC4=CC(=O)CC[C@]4(C)[C@H]3CC[C@]12C [prog, progesterone]
Ca2+ measurement and whole-cell patch-clamp inhibition; steroid overlay binding [2]: TRPM3 bound to pregnenolone sulphate, progesterone, nifedipine, dihydrotestosterone and cholesterol

CS(=O)(=O)c1ccc(C(=O)Nc2ccc(N3CCCC3)cc2)c(Cl)c1 [2-CMNPBC, 2-chloro-4-(methylsulphonyl)-N-[4-(1 pyrrolidinyl)phenyl]benzenecarboxamide]
Ca2+ measurement; 10 μM inhibits PregS-evoked but not nifedipine-evoked TRPM3 ac [3]: (2-CMNPBC, Fig. 9a), which also inhibited pregnenolone sulphate-evoked TRPM3 activity
